In ChEMBL document CHEMBL1133741, “New anilinophthalazines as potent and orally well absorbed inhibitors of the VEGF receptor tyrosine kinases useful as antagonists of tumor-driven angiogenesis” (J Med Chem, 2000):

How the values were obtained:
[1] = molecular target: Vascular endothelial growth factor receptor 1 (Homo sapiens, UniProt P17948); assay: Inhibitory activity against Flt-kinase
[2] = molecular target: T1, Vascular endothelial growth factor receptor 2 (Homo sapiens, UniProt P35968); assay: Inhibitory activity against kinase domain containing receptor (KDR/VEGFR2)
T1 sequence (P35968 whole entry, the tested form may be a part): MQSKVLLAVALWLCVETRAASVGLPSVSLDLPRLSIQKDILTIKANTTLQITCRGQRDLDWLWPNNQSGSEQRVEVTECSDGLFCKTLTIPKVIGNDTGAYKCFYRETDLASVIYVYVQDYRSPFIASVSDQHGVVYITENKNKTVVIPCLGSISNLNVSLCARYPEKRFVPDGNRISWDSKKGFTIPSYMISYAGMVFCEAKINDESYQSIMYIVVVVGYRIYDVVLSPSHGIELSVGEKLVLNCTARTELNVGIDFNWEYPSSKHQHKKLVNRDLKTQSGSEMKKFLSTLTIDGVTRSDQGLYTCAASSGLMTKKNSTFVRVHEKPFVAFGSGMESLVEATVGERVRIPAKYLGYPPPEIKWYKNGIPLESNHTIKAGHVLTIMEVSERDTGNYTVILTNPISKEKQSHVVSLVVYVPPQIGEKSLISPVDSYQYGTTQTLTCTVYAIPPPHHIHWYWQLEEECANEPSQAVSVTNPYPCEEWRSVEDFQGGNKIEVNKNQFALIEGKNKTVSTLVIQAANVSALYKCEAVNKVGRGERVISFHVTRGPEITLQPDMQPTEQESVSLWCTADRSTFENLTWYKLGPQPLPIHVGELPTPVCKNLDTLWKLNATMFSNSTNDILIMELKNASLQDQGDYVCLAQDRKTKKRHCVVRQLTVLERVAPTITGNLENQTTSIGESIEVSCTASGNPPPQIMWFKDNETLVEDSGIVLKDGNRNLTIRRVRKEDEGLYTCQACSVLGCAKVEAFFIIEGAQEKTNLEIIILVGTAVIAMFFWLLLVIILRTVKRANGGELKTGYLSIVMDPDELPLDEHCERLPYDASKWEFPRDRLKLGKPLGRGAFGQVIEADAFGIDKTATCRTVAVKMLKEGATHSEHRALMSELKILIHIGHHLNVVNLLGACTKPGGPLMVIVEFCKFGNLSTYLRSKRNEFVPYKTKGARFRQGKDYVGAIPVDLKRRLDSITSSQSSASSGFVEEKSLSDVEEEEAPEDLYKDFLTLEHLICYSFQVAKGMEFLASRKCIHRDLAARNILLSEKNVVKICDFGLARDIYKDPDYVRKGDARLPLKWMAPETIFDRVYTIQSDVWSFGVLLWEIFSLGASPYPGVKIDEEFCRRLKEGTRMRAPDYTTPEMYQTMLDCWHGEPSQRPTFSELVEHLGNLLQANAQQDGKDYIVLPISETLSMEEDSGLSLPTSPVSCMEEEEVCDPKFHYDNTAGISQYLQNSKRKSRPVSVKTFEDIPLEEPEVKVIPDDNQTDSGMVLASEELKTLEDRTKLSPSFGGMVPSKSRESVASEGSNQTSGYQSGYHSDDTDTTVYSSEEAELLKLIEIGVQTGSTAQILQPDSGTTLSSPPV

[3] = molecular target: Platelet-derived growth factor receptor beta (Homo sapiens, UniProt P09619); assay: Inhibition of PDGF- beta receptor kinase
Chain of Platelet-derived growth factor receptor beta (P09619 whole entry): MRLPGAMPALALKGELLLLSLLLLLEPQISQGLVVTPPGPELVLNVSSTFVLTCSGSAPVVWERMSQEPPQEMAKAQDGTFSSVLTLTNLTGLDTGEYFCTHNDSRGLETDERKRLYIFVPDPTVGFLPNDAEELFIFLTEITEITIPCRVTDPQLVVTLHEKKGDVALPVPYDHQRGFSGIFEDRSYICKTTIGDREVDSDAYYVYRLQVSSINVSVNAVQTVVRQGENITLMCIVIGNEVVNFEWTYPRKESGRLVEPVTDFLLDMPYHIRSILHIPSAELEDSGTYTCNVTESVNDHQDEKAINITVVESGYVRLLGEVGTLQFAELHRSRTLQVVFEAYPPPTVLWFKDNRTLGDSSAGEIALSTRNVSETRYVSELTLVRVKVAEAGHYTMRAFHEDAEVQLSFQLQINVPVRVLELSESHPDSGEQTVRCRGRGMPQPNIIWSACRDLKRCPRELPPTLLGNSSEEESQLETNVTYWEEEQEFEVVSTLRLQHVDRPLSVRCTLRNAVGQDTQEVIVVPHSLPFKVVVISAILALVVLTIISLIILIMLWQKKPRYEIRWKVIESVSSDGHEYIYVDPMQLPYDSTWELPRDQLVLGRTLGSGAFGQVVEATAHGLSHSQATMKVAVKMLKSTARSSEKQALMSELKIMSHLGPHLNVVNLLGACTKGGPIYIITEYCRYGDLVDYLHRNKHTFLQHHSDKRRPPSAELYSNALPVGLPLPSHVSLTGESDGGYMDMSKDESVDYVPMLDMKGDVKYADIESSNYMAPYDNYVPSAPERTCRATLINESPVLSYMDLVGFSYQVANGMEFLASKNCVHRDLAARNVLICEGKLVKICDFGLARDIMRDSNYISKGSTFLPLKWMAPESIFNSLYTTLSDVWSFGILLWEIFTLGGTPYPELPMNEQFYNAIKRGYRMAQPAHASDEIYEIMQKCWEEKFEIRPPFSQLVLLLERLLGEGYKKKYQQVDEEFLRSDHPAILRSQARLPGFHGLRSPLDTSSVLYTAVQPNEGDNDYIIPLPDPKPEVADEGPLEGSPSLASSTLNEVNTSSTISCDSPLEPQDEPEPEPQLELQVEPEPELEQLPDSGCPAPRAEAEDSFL

[4] = (§1) The maximum concentration observed (Cmax) in the blood sample at indicated time point (tmax) at a dose 50 mg/Kg administered orally in mice.; format: ADME, organism-based; parameters: dose 50 mg/Kg, route oral; conditions: mouse, in vivo, po
[5] = The maximum time reported (tmax) at an oral dose of 50 mg/Kg in mice; format: ADME, organism-based; conditions: mouse, in vivo
[6] = molecular target: Mast/stem cell growth factor receptor Kit (Homo sapiens, UniProt P10721); assay: Inhibition of Proto-oncogene tyrosine-kinase c-Kit
Chain of Mast/stem cell growth factor receptor Kit (P10721 whole entry): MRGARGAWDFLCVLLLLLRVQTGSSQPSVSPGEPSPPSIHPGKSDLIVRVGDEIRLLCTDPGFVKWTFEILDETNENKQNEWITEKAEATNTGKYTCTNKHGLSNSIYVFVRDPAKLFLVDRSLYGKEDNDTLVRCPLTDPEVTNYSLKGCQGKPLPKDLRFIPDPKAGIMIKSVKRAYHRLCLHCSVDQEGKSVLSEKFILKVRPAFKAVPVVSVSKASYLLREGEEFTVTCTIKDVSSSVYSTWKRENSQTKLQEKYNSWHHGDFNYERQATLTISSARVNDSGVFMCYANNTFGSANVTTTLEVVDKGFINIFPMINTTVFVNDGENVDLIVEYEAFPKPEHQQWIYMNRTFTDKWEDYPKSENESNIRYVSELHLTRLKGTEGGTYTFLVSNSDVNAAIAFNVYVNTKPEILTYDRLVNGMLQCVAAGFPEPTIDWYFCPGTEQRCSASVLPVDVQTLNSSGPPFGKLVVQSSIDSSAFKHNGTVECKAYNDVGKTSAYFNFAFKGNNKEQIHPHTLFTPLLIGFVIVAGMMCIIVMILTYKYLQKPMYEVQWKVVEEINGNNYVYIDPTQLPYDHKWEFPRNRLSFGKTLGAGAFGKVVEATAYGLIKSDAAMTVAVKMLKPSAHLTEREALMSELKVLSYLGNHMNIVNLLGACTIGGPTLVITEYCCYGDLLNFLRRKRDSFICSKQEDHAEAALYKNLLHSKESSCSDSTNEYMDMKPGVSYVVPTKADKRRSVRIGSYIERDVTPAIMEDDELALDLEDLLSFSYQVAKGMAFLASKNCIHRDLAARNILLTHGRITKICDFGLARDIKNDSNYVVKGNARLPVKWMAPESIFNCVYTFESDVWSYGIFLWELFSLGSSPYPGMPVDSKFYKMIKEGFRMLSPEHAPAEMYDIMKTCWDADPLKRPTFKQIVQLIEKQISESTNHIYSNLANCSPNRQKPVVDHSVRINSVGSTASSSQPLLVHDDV

[7] = molecular target: T1, Vascular endothelial growth factor receptor 2; conditions: CHO
Mus musculus = assay: as §1; format: ADME, organism-based; parameters: dose 50 mg/Kg, route oral; conditions: in vivo, po

Chain of Vascular endothelial growth factor receptor 1 (P17948 whole entry, the tested form may be a part): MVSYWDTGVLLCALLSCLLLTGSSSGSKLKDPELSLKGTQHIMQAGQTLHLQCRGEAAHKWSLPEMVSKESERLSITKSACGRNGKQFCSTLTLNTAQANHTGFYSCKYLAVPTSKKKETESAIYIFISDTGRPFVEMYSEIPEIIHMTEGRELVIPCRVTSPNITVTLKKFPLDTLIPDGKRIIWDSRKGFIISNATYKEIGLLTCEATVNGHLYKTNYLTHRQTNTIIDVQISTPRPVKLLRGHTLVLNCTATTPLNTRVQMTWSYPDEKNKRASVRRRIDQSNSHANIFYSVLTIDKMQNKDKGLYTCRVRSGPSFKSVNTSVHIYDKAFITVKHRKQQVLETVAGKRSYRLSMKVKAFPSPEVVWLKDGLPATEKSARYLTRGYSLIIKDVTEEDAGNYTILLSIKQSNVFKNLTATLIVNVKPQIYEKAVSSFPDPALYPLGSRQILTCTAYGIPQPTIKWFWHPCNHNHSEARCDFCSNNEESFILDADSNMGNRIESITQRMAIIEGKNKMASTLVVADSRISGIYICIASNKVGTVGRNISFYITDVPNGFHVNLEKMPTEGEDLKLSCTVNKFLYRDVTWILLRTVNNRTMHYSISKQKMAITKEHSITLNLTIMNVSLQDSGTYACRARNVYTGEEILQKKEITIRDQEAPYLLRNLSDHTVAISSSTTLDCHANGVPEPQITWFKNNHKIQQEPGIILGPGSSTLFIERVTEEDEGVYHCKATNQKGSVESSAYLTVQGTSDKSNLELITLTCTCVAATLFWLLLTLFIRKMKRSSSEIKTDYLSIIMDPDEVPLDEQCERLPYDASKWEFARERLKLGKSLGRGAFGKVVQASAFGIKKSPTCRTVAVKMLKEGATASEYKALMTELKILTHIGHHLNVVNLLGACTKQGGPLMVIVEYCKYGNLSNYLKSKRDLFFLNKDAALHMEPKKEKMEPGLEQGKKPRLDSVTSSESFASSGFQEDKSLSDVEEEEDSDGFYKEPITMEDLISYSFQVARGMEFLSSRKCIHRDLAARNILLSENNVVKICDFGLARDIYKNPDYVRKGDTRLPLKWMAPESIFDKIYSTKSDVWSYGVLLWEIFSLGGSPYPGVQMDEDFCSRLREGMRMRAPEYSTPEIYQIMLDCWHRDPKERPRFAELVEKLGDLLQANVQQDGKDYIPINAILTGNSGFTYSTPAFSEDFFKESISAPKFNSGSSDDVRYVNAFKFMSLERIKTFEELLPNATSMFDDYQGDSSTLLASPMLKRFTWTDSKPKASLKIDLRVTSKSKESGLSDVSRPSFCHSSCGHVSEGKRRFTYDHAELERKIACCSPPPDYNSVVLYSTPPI

Row | IC50 [1] | IC50 [2] | IC50 [3] | Cmax [4] | Tmax [5] | IC50 [6] | ED50 [7] | Cmax (Mus musculus) | SMILES
1 | 230 nM | 610 nM | – | – | – | – | – | – | Clc1ccc(Nc2nnc(Cc3ccncc3)c3cnccc23)cc1
2 | 1700 nM | – | – | – | – | – | – | – | Clc1ccc(Nc2nnc(Cc3ccncc3)c3cccnc23)cc1
3 | – | – | 2000 nM | 25.6 µM | 30 min | 1000 nM | – | – | CC(C)(C)c1ccc(Nc2nnc(Cc3ccncc3)c3ccccc23)cc1
4 | 70 nM | 30 nM | 600 nM | 9.8 µM | 30 min | 700 nM | 27 nM | – | Clc1ccc(Nc2nnc(Cc3ccncc3)c3ccccc23)cc1Cl
5 | 150 nM | 40 nM | 800 nM | 10 µM | 30 min | 2000 nM | 10 nM | – | Cc1cc(C)cc(Nc2nnc(Cc3ccncc3)c3ccccc23)c1
6 | – | – | 4000 nM | 0.5 µM | 30 min | 7900 nM | – | – | Oc1cccc(Nc2nnc(Cc3ccncc3)c3ccccc23)c1
7 | 350 nM | 200 nM | > 10000 nM | – | – | > 10000 nM | 40 nM | – | Fc1cc(Nc2nnc(Cc3ccncc3)c3ccccc23)cc(C(F)(F)F)c1
8 | – | – | 1400 nM | – | – | 1400 nM | – | – | c1ccc(-c2ccc(Nc3nnc(Cc4ccncc4)c4ccccc34)cc2)cc1
9 | > 10000 nM | > 10000 nM | – | – | – | – | – | – | Clc1ccc(Nc2nnc(Cc3ccccn3)c3ccccc23)cc1
10 | 760 nM | 410 nM | – | – | – | – | – | – | Clc1ccc(Nc2nnc(Cc3ccncn3)c3ccccc23)cc1
11 | 650 nM | – | – | – | – | – | – | – | Nc1ccc2c(Cc3ccncc3)nnc(Nc3ccc(Cl)cc3)c2c1
12 | 240 nM | – | – | – | – | – | – | – | Clc1ccc(Nc2nnc(Cc3ccncc3)c3ncccc23)cc1
13 | 600 nM | – | 4000 nM | 7.6 µM | 120 min | 2700 nM | – | – | FC(F)(F)c1cc(Nc2nnc(Cc3ccncc3)c3ccccc23)ccc1Cl
14 | 470 nM | – | – | – | – | – | – | – | Clc1ccc(Nc2nnc(Cc3ccncc3)c3ccncc23)cc1
15 | 60 nM | 1600 nM | – | – | – | – | – | – | Clc1ccc(Oc2nnc(Cc3ccncc3)c3ccccc23)cc1
16 | 260 nM | – | – | – | – | – | – | – | Cc1c(Cc2ccncc2)nnc(Nc2ccc(Cl)cc2)c1C

Row | IC50 [1] | IC50 [2] | IC50 [3] | Cmax [4] | Tmax [5] | IC50 [6] | ED50 [7] | Cmax (Mus musculus) | SMILES
17 | – | – | – | – | 30 min | – | 930 nM | 0.3 µM | Cc1cc(C)c(/C=C2\C(=O)Nc3ccccc32)[nH]1 [SEMAXANIB]
18 | > 10000 nM | > 10000 nM | – | – | – | – | – | – | Cc1cc(Cc2nnc(Nc3ccc(Cl)cc3)c3ccccc23)cc(C)n1
19 | 2300 nM | 3500 nM | – | – | – | – | – | – | CN(c1ccc(Cl)cc1)c1nnc(Cc2ccncc2)c2ccccc12
20 | 3000 nM | 4700 nM | – | – | – | – | – | – | Cc1ccc2c(Cc3ccncc3)nnc(Nc3ccc(Cl)cc3)c2c1
21 | 260 nM | – | 2000 nM | 8 µM | 30 min | 3500 nM | – | – | COc1cc(Nc2nnc(Cc3ccncc3)c3ccccc23)ccc1Cl
22 | 420 nM | 210 nM | – | – | – | – | – | – | CC(c1ccncc1)c1nnc(Nc2ccc(Cl)cc2)c2ccccc12 (centres undefined)
23 | 9800 nM | > 10000 nM | – | – | – | – | – | – | Clc1ccc(Nc2nnc(Cc3cccnc3)c3ccccc23)cc1
24 | – | – | 2800 nM | – | – | > 10000 nM | – | – | c1ccc(Nc2nnc(Cc3ccncc3)c3ccccc23)cc1
25 | – | 240 nM | – | – | – | – | – | – | Cc1cc(Cc2nnc(Nc3ccc(Cl)cc3)c3ccccc23)ccn1
26 | – | – | 800 nM | 21 µM | 30 min | 3000 nM | – | – | COc1cccc(Nc2nnc(Cc3ccncc3)c3ccccc23)c1
27 | – | – | – | 32 µM | 15 min | – | – | – | Clc1ccc(Nc2nnc(Cc3ccncc3)c3ccccc23)cc1.O=C(O)CCC(=O)O
28 | 2600 nM | 4700 nM | – | – | – | – | – | – | Clc1ccc(Nc2nnc(NCc3ccncc3)c3ccccc23)cc1
29 | 70 nM | 1300 nM | – | – | – | – | – | – | Clc1ccc(Sc2nnc(Cc3ccncc3)c3ccccc23)cc1
30 | 600 nM | 380 nM | > 10000 nM | 6 µM | 120 min | > 10000 nM | 39 nM | – | FC(F)(F)c1cc(Br)cc(Nc2nnc(Cc3ccncc3)c3ccccc23)c1
31 | 40 nM | 80 nM | 1000 nM | 13 µM | 30 min | 2500 nM | 8 nM | – | Cc1cccc(Nc2nnc(Cc3ccncc3)c3ccccc23)c1
32 | 3600 nM | > 10000 nM | – | – | – | – | – | – | Clc1ccc(Nc2nnc(Cc3ccncc3)c3c2CCCC3)cc1
